Experimental data published in ChEMBL document CHEMBL3879901, “Substituted isoquinolin-1(2H)-ones, and methods of use thereof” (2012).

Columns and labels:
[1] = molecular target: Phosphatidylinositol 4,5-bisphosphate 3-kinase catalytic subunit gamma isoform (Homo sapiens, UniProt P48736); assay: Inhibition of recombinant human C-terminal His6-tagged p110gamma expressed in insect cells using phosphatidylinositol as substrate in presence of gamma-32P-ATP after 5 mins by thin layer chromatographic method
Phosphatidylinositol 4,5-bisphosphate 3-kinase catalytic subunit gamma isoform, sequence (P48736 whole entry, canonical isoform): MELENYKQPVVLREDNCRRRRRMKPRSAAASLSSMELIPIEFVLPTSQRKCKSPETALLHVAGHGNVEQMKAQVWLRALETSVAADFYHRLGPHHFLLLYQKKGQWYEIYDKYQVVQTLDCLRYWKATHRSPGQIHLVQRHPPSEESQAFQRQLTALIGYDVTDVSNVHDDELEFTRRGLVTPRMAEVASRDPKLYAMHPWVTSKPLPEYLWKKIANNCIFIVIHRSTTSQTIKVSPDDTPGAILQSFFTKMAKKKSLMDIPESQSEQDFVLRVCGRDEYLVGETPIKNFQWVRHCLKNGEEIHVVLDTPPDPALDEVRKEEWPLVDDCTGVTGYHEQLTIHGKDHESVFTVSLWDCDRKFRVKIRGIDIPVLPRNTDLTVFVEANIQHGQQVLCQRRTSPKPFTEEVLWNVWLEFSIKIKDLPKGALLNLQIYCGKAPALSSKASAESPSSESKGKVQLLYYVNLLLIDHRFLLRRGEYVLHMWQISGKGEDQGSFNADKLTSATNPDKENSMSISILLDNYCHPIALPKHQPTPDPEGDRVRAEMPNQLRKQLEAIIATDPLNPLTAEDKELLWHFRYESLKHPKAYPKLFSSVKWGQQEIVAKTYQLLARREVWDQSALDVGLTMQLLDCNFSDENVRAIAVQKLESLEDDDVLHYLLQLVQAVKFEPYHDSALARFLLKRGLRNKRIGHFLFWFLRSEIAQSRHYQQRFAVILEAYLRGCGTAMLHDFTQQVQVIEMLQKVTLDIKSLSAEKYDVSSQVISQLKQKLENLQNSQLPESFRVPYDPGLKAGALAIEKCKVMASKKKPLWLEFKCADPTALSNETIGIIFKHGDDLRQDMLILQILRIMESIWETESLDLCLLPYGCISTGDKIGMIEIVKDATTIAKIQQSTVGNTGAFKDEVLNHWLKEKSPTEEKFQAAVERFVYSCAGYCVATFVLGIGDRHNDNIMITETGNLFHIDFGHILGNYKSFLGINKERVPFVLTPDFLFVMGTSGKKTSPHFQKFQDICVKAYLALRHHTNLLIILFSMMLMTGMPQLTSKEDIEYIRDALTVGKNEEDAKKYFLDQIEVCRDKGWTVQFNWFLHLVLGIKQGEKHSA

[2] = molecular target: PI3-kinase p110-delta/p85-alpha (Homo sapiens, UniProt O00329); assay: Inhibition of N-terminal His6-tagged recombinant full-length human p110delta/untagged recombinant full length p85alpha expressed in baculovirus infected Sf21 cells using phosphatidylinositol as substrate in presence of gamma-32P-ATP after 5 mins by thin layer chromatographic method
PI3-kinase p110-delta/p85-alpha, sequence (P27986 whole entry): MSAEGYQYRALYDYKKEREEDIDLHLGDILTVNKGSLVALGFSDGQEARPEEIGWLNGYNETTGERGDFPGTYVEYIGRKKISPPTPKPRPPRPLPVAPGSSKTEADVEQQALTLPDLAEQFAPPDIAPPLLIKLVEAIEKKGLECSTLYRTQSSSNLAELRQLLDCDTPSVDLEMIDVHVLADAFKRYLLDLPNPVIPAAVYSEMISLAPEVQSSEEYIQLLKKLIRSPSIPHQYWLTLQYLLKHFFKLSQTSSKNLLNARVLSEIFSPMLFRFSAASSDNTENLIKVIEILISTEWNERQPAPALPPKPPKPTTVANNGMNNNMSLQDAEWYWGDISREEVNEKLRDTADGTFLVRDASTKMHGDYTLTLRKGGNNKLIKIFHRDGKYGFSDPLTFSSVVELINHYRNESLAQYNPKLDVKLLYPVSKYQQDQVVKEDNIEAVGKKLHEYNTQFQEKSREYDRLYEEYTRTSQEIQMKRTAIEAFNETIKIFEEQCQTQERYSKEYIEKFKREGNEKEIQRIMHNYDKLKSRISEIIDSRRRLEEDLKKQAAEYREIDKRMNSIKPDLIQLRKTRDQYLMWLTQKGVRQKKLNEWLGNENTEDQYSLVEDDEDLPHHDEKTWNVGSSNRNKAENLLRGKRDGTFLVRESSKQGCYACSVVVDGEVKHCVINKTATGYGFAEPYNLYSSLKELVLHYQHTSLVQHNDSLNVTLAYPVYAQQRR
PI3-kinase p110-delta/p85-alpha, sequence (O00329 whole entry): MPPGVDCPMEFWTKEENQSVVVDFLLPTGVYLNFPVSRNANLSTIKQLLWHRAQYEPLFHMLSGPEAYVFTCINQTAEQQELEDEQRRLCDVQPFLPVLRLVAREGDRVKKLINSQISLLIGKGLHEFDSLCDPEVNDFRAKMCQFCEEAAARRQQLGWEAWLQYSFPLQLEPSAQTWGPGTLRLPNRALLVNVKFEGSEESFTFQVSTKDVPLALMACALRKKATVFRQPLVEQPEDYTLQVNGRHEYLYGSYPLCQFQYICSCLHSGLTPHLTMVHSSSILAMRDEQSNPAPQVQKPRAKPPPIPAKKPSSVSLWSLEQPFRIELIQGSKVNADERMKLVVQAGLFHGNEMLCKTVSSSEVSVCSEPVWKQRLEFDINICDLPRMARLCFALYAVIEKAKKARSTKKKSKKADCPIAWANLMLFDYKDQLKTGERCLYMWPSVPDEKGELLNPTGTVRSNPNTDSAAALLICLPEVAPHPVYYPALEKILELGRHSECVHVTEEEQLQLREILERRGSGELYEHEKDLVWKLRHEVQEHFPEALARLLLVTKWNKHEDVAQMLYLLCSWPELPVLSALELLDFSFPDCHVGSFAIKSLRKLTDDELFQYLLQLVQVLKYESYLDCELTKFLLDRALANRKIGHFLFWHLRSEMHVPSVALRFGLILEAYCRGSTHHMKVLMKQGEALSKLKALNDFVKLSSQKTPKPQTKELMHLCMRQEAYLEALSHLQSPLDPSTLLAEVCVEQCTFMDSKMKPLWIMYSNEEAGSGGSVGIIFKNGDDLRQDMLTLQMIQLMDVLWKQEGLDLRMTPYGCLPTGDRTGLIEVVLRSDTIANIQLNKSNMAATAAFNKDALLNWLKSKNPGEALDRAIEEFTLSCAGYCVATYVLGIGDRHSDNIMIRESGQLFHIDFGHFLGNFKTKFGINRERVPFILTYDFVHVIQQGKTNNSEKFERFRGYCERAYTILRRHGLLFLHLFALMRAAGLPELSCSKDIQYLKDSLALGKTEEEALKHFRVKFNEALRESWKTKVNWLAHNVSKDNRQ

[3] = molecular target: PI3-kinase p110-alpha/p85-alpha (Homo sapiens, UniProt P42336); assay: Inhibition of N-terminal His6-tagged recombinant full-length human p110alpha/untagged recombinant full length human p85alpha expressed in baculovirus infected Sf21 cells using phosphatidylinositol as substrate in presence of gamma-32P-ATP after 5 mins by thin layer chromatographic method
PI3-kinase p110-alpha/p85-alpha, sequence (P27986 whole entry): as the sequence (P27986 whole entry) above
PI3-kinase p110-alpha/p85-alpha, sequence (P42336 whole entry): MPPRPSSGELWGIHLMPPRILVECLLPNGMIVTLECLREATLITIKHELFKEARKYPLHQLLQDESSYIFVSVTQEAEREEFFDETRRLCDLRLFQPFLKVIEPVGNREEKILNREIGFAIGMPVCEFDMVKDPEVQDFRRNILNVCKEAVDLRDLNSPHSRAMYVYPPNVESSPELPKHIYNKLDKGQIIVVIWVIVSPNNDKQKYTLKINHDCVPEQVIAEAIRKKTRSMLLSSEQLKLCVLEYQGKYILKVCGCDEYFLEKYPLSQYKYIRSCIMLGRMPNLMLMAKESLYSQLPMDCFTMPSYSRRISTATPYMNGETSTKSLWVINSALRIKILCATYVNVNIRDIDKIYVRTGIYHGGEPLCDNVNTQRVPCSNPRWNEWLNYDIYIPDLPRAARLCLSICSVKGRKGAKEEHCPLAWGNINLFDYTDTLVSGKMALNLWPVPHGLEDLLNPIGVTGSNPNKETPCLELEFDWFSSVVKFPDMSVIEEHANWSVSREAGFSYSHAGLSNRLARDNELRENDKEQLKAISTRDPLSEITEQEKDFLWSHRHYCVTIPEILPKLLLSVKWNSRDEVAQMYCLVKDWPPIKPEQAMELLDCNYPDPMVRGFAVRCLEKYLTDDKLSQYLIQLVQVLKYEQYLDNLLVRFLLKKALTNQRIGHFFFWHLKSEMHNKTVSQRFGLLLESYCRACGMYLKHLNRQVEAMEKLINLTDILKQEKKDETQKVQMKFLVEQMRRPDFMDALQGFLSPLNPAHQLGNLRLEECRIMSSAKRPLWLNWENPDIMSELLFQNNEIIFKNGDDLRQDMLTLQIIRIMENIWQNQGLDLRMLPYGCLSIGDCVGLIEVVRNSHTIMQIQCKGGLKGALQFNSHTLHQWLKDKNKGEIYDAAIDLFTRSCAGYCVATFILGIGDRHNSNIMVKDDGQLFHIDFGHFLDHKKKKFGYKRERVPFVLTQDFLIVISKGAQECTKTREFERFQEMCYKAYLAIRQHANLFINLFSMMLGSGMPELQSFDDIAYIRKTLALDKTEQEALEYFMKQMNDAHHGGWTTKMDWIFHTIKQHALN

[4] = molecular target: PI3K p110 beta/p85 alpha (Homo sapiens, UniProt P42338); assay: Inhibition of N-terminal His6-tagged recombinant full-length human p110beta/untagged recombinant full length p85alpha expressed in baculovirus infected Sf21 cells using phosphatidylinositol as substrate in presence of gamma-32P-ATP after 5 mins by thin layer chromatographic method
PI3K p110 beta/p85 alpha, sequence (P27986 whole entry): as the sequence (P27986 whole entry) above
PI3K p110 beta/p85 alpha, sequence (P42338 whole entry): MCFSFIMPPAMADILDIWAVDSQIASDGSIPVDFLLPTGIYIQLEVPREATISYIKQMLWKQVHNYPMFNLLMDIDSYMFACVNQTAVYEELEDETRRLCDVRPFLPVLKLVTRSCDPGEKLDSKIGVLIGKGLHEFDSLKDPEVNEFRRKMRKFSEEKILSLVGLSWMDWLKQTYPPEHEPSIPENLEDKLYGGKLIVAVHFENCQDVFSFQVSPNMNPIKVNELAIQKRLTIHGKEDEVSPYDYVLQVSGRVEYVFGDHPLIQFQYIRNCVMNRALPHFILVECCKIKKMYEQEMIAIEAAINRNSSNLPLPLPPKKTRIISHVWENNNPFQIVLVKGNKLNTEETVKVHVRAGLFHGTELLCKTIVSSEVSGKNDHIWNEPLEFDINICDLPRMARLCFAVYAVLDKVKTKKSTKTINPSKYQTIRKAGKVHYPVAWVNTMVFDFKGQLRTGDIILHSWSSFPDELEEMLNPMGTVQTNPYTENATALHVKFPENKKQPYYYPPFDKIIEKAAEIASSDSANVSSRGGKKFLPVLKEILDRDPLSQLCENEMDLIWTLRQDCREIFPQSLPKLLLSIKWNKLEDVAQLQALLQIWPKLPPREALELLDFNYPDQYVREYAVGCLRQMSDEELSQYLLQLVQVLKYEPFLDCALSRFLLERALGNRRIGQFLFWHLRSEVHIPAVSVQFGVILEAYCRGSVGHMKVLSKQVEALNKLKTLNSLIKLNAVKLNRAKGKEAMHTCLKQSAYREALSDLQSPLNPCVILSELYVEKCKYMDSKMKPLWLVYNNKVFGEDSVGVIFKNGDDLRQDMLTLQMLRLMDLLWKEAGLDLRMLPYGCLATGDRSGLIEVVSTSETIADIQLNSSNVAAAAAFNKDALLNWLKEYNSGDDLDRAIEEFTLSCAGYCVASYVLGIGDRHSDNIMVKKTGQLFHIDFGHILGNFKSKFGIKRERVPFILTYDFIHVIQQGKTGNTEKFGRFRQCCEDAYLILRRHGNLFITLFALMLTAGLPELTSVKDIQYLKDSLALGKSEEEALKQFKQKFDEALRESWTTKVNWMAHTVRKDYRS

[5] = Antiproliferative activity against Balb/c mouse splenic B cells preincubated for 30 mins followed by LPS or F(ab')2 donkey anti-mouse IgM and recombinant mouse IL4 stimulation measured after 72 hrs by Alamar Blue reduction assay; format: functional, cell-based

| Compound | IC50 [1] | IC50 [2] | IC50 [3] | IC50 [4] | EC50 [5] |
| --- | --- | --- | --- | --- | --- |
| Cc1cccc2cc(Cn3nc(/C=C4/CCNC4=O)c4c(N)ncnc43)n(-c3ccccc3F)c(=O)c12 | > 10 µM | < 10000 nM | > 10 µM | > 10 µM | – |
| Cc1cccc2cc(Cn3nc(-c4ccc5nc(N)sc5c4)c4c(N)ncnc43)n(-c3ccccc3)c(=O)c12 | < 0.1 µM | < 100 nM | < 100 µM | – | < 100 nM |
| COc1ccc(-c2nn(Cc3cc4cccc(C)c4c(=O)n3-c3ccccc3F)c3ncnc(N)c23)cc1OC | < 1 µM | < 1000 nM | > 10 µM | – | < 1000 nM |
| Cc1ccccc1-n1c(Cn2nc(CN3CCOCC3)c3c(N)ncnc32)cc2cccc(C)c2c1=O | > 10 µM | < 10000 nM | > 10 µM | > 10 µM | – |
| Cc1cccc2cc(Cn3nc(-c4cccc(O)c4)c4c(N)ncnc43)n(C3CCCC3)c(=O)c12 | < 1 µM | < 100 nM | > 10 µM | < 10 µM | – |
| Cc1ccccc1-n1c(Cn2nc(Cl)c3c(N)ncnc32)cc2cccc(C)c2c1=O | < 1 µM | < 100 nM | > 10 µM | – | < 1000 nM |
| CCN(Cc1cc2cccc(C)c2c(=O)n1-c1ccccc1C)c1ncnc2[nH]cnc12 | < 10 µM | < 10000 nM | > 10 µM | > 10 µM | – |
| Nc1ncnc2c1c(-c1cn[nH]c1)nn2Cc1cc2cccc(F)c2c(=O)n1-c1ccccc1F | < 10 µM | < 1000 nM | > 10 µM | > 10 µM | – |
| Cc1cccnc1-n1c(Cn2nc(Cl)c3c(N)ncnc32)cc2cccc(C)c2c1=O | > 10 µM | < 1000 nM | > 10 µM | – | < 1000 nM |
| C=Cc1nn(Cc2cc3cccc(C)c3c(=O)n2-c2ccccc2F)c2ncnc(N)c12 | < 10 µM | < 1000 nM | > 10 µM | > 10 µM | – |
| Cc1ccccc1-n1c(CN(C)c2ncnc3[nH]cnc23)cc2cccc(C)c2c1=O | < 10 µM | – | > 10 µM | > 10 µM | – |
| Cc1ccccc1-n1c(Cn2nc(-c3cnn(C)c3)c3c(N)ncnc32)cc2cccc(C)c2c1=O | < 1 µM | < 10000 nM | > 10 µM | > 10 µM | – |
| Cc1cccc2cc(Cn3nc(-c4cnn(C)c4)c4c(N)ncnc43)n(-c3ccccc3F)c(=O)c12 | < 10 µM | < 10000 nM | > 10 µM | > 10 µM | – |
| Cc1cccc2cc(Cn3nc(C#C[C@@H](C)O)c4c(N)ncnc43)n(C3CCCC3)c(=O)c12 | < 10 µM | < 100 nM | > 10 µM | < 10 µM | – |
| Cc1cccnc1-n1c(Cn2nc(Br)c3c(N)ncnc32)cc2cccc(C)c2c1=O | < 10 µM | < 1000 nM | > 10 µM | – | < 100 nM |
| Cc1ccccc1-n1c(Cn2nc(CCC(=O)N3CCOCC3)c3c(N)ncnc32)cc2cccc(C)c2c1=O | > 10 µM | < 10000 nM | > 10 µM | > 10 µM | – |
| Cc1ccccc1-n1c(Cn2nc(CCC(N)=O)c3c(N)ncnc32)cc2cccc(C)c2c1=O | < 10 µM | < 1000 nM | > 10 µM | > 10 µM | – |
| Cc1ccccc1-n1c(Cn2nc(-c3ccc(Cl)cc3)c3c(N)ncnc32)cc2cccc(C)c2c1=O | < 1 µM | < 1000 nM | > 10 µM | – | < 10000 nM |
| Cc1ccccc1-n1c(Cn2nc(/C=C/C(=O)N3CCOCC3)c3c(N)ncnc32)cc2cccc(C)c2c1=O | > 10 µM | < 1000 nM | > 10 µM | > 10 µM | – |
| Cc1cccc2cc(Cn3nc(I)c4c(N)ncnc43)n(C(C)C)c(=O)c12 | > 10 µM | 100 to 10000 nM | > 10 µM | > 10 µM | – |
| Cc1cccc2cc(Cn3nc(-c4ccc5oc(N)nc5c4)c4c(N)ncnc43)n(C3CC3)c(=O)c12 | < 0.1 µM | < 100 nM | < 100 µM | – | < 100 nM |
| Cc1ccccc1-n1c(Cn2nc(-c3cccc(O)c3)c3c(N)ncnc32)cc2ccccc2c1=O | < 1 µM | < 100 nM | > 10 µM | – | < 1000 nM |
